The values that follow come from PMC11325787, “A fluorescence polarization assay for high-throughput screening of inhibitors against HIV-1 Nef-mediated MHC-I downregulation” (The Journal of Biological Chemistry, 2024).

Peptide text beside a SMILES is read from it. * marks the point of attachment. X1 = CN(C)c1ccc2c(-c3ccc(C(=O)*)cc3C(=O)[O-])c3ccc(=[N+](C)C)cc-3oc2c1; 5TAMRA = CN(C)c1ccc2c(c1)Oc1cc(N(C)C)ccc1C21OC(=O)c2cc(C(=O)*)ccc21

Series [1] is described as follows: Stability of the probes on the bench. The settings on record: room temperature.
For series [2], the target named is T1, MBP-Nef-μ1^CTD (UniProt P03406+P35585).
T1 construct: fusing HIV-1 Nef (59–206, NL4.3) to the C terminal domain of μ1 subunit of AP1; to the C terminal domain of μ1 subunit of AP1 via a flexible linker of 20 amino acids; 6xHis (C); made in house; host or cells: Escherichia coli
T1 sequence (P03406 59-206 limits assumed): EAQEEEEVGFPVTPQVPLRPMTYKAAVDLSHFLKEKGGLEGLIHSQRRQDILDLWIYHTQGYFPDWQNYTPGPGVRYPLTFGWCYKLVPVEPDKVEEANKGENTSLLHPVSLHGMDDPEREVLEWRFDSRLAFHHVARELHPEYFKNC
T1 sequence (P35585 168-421 limits assumed): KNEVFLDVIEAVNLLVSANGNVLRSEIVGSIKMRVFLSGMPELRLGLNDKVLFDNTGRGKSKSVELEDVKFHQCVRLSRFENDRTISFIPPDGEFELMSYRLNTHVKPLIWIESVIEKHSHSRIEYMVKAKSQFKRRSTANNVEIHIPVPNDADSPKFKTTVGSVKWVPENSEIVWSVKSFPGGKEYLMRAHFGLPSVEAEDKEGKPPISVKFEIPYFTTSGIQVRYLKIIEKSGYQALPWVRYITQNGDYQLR
The series can be described thus: Fluorescence polarization binding assay of TMR-labelled MHC-ICD probes with the Nef-μ1^CTD fusion. The arrangement: species or system HIV-1 (Nef 59–206, NL4.3). The settings on record: 50 nM probe.
Procedure: The assay volume was miniaturized and kept at 15 μl for compatibility with HTS.
Purified MBP-Nef-μ1^CTD was buffer exchanged into the assay buffer (50 mM Tris, 150 mM NaCl, 0.5 mM DTT, 0.01% Triton X-100, pH 8.0). A stock protein solution of 120 μM Nef-μ1^CTD was then prepared and was subsequently used to create different dilutions. Assays were carried out in Corning 384-well black microplates (3820). In each well, 50 nM TMR-labeled MHC-ICD peptide was mixed with MBP-Nef-μ1^CTD at varied concentrations in a total volume of 15 μl. The plate was incubated for 1∼2 h at room temperature with minimal exposure to light. FP was then measured using the EnVision plate reader (PerkinElmer) with excitation at 535 nm and emission at 595 nm. Experiments were done in triplicates. Data was fitted to nonlinear regression and plotted as a function of protein concentration in a logarithmic scale using OriginLab.
The adjusted data was then fitted to nonlinear regression for one-site binding using the following equation: Y = Bmax∗X/(KD + X) (Bmax: maximum specific binding in the same units as Y).

The next series has as its target TMR-MHC-ICD. The series can be described thus: fluorescence polarisation.
The target in series [3] is T1, MBP-Nef-μ1^CTD. The series can be described thus: Competition of TMR-enhanced-MHC-ICD by unlabeled enhanced-MHC-ICD peptide (FP). The following applies: room temperature, result in words. Format: binding, HIV-1 (Nef 59–206, NL4.3). The text has this:
We next investigated whether our assay is sensitive to competitive inhibition. Here, an unlabeled, modified MHC-ICD peptide was used as the competitor. The sequence of this competitor peptide is different from the authentic sequence of MHC-ICD in the following ways. […] Second, to improve the solubility of the competitor peptide, we introduced three additional mutations in the MHC-ICD sequence: Q322E, G325S, and S326D. According to the previous structure, these mutations should not interfere with Nef-μ1^CTD binding but should increase the peptide’s hydrophilicity.
The Nef-μ1^CTD fusion was constructed by fusing HIV-1 Nef (59–206, NL4.3) to the C terminal domain of μ1 subunit of AP1 via a flexible linker of 20 amino acids. Gene encoding the above Nef-μ1^CTD fusion was cloned into a modified pMAT9 expression vector with a 6xHis tag introduced at the C-terminus of the fusion protein. Escherichia coli cells transformed with the plasmid were grown at 37 °C till A600 reached 0.8. Protein expression was then induced with 0.1 mM IPTG and continued at 16 °C overnight. Cells were then lysed using sonication. The protein of interest was purified sequentially through a Ni-NTA affinity column, a MBP affinity column, a HiTrap Q anion exchange column, and finally a Superdex 200 size exclusion column.
For competition using unlabeled enhanced-MHC-ICD peptide, a stock solution of 1.2 mM unlabeled enhanced-MHC-ICD peptide was first prepared. The stock solution was then serial-diluted (2-fold each) 10 times. […] The plate was incubated at room temperature and read at different time points. FP values were recorded. All experiments were done in triplicates.

A short description of series [4]: Precipitation/solubility of competitor peptide observed during experiments. It is filed as physicochemical. The settings on record: seen during experiments; stock solution 1.2 mM; result in words.
The target in series [5] is T1, MBP-Nef-μ1^CTD. Format: binding, HIV-1 (Nef 59–206, NL4.3). The settings on record: 300 μM, result in words; for effect on FP signal: 30 μM MBP-Nef-μ1^CTD, 50 nM TMR-enhanced-MHC-ICD, room temperature; for effect on FP signal / noise in the assay: final dimethylsulfoxide 3%; for background of the assay: not shown.

Turning to `CC(C)C[C@H](NC(=O)[C@H](CCC(N)=O)NC(=O)[C@H](CO)NC(=O)[C@H](Cc1ccc(O)cc1)NC(=O)[C@H](CO)NC(=O)c1ccc2c(c1)C(=O)OC21c2ccc(N(C)C)cc2Oc2cc(N(C)C)ccc21)C(=O)N[C@@H](C)C(=O)NCC(=O)N[C@@H](CO)C(=O)N[C@@H](CC(=O)O)C(=O)N[C@@H](CO)C(=O)N[C@@H](C)C(=O)N[C@@H](CCC(N)=O)C(=O)O` [TMR-enhanced-MHC-ICD] (5TAMRA-SYSQLAGSDSAQ-OH), the stability of probe entry in series [1] is reported as “at least 20 h”.

In the case of `C[C@H](NC(=O)[C@H](C)NC(=O)[C@H](CCC(N)=O)NC(=O)[C@H](CO)NC(=O)[C@H](Cc1ccc(O)cc1)NC(=O)[C@H](CO)NC(=O)c1ccc(-c2c3ccc(=[N+](C)C)cc-3oc3cc(N(C)C)ccc23)c(C(=O)[O-])c1)C(=O)NCC(=O)N[C@@H](CO)C(=O)N[C@@H](CC(=O)O)C(=O)N[C@@H](CO)C(=O)N[C@@H](C)C(=O)N[C@@H](CCC(N)=O)C(=O)O` [TMR-MHC-ICD] (X1-SYSQAAGSDSAQ-OH; N-terminus and C-terminus assumed), at MBP-Nef-μ1^CTD [2] (FP, MBP-Nef-μ1^CTD varied, 15 μl, 384-well, 50 mM Tris, 150 mM NaCl, 0.5 mM DTT, 0.01% Triton X-100, pH 8.0, 1∼2 h, room temperature, ex 535 nm, em 595 nm, triplicates, TMR-mutant-MHC-ICD signal subtracted, one-site binding fit, read-out: KD (dissociation constant)), the Kd amounted to 44.1 µM. For the same compound, the “signal window (difference between probe and TMR-mutant-MHC-ICD curves)” value on MBP-Nef-μ1^CTD [2] (low Nef-μ1^CTD concentrations, result in words) is reported as “very modest”. The stability of probe result in series [1] is recorded as “at least 20 h”.

For “MBP-Nef-μ1^CTD fusion protein (from UniProt P03406;P35585)”, the Kd in the series with TMR-MHC-ICD worked out at 44.1 µM.

Turning to `CC(C)C[C@H](NC(=O)[C@H](CCC(=O)O)NC(=O)[C@H](CO)NC(=O)[C@H](Cc1ccc(O)cc1)NC(=O)[C@@H](N)CO)C(=O)N[C@@H](C)C(=O)N[C@@H](CO)C(=O)N[C@@H](CC(=O)O)C(=O)N[C@@H](CC(=O)O)C(=O)N[C@@H](CO)C(=O)N[C@@H](C)C(=O)N[C@@H](CCC(N)=O)C(=O)O` [unlabeled enhanced MHC-ICD peptide] (H-SYSELASDDSAQ-OH; N-terminus and C-terminus assumed), the “effect on FP signal (displacement of TMR-enhanced-MHC-ICD probe)” value at MBP-Nef-μ1^CTD [3] (30 μM MBP-Nef-μ1^CTD, 50 nM TMR-enhanced-MHC-ICD, varied competitor, triplicates) is reported as “dose-dependent decrease of the FP signal”. Also, on MBP-Nef-μ1^CTD [3] (1-h incubation, three independent samples, one-way ANOVA p < 0.0001), the “competition of the fluorescence-labeled probe after 1-h incubation” value is on record as “successfully observed”. For the same compound, on MBP-Nef-μ1^CTD [3] (4 h, three independent samples, longer incubation led to a gradual decrease of the FP signal (not shown)), the “competition signals after 4 h” value is reported as “remained stable”. Besides, the precipitation entry in series [4] is given as “sometimes forms precipitates”.

For the compound TMR-SDSQAAGSRSAQ [TMR-mutant-MHC-ICD], the “FP signal at Nef-μ1^CTD concentration beyond 50 μM” value on MBP-Nef-μ1^CTD [2] (Nef-μ1^CTD >50 μM, noise believed to be light scattering of MBP-Nef-μ1^CTD, result in words) was “increased modestly”. Besides, the stability of probe entry in series [1] is reported as “at least 20 h”.

Consider `O=C(N[C@H](CO)[C@H](O)c1ccc([N+](=O)[O-])cc1)C(Cl)Cl` [chloramphenicol], for which, on MBP-Nef-μ1^CTD [5], the “effect on FP signal” value was “did not lead to any meaningful decrease of the FP signal”, the “noise in the assay” value is on record as “did not cause noise” and the “background of the assay” value is reported as “no fluctuation at all”.

`OC[C@H]1O[C@H](O[C@H]2[C@H](O)[C@@H](O)C(O)O[C@@H]2CO)[C@H](O)[C@@H](O)[C@@H]1O` (mixture of isomers) [maltose]: at MBP-Nef-μ1^CTD [5], the “effect on FP signal” value is “did not lead to any meaningful decrease of the FP signal”, the “noise in the assay” value is recorded as “did not cause noise” and the “background of the assay” value is given as “no fluctuation at all”.

One may read the Kd as the free concentration of one partner at which half of the binding sites on the other are occupied at equilibrium, for simple one-to-one binding.
